The target in one assay is T1, human EDG-2 (Homo sapiens, UniProt Q92633).
T1 construct: cDNA of the cloned human EDG-2 was introduced into pEFneo, which is an animal expression vector; expressed in transfected cells; host or cells: HepG2
As to the kind of experiment: Inhibitory activity on LPA-induced elevation of intracellular Ca2+ level. The format is cell-based. The settings on record: 50% inhibition of elevation of intracellular Ca2+ level by LPA, human EDG-2/HepG2 cells, fura-2. The method in brief: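 Stably transfected HepG2 cells loaded with fura-2/AM (45 min, room temperature) in 0.1% BSA HEPES buffer. Test compound added before LPA, and the LPA-evoked intracellular Ca2+ rise measured fluorometrically. IC50 for inhibition derived.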

In a further assay the test system is Human EDG-2/HepG2 cells. Nature of the assay: Inhibitory activity on LPA-accelerated [3H] thymidine incorporation (cell proliferation). The assay is classed as cell-based. The settings on record: 50% inhibition of LPA-induced increase of [3H] thymidine incorporation. An excerpt:
The human EDG-2 expression plasmid was introduced into HepG2 cells by electroporation. After the introduction, culturing was continued while exchanging selective media every 3 to 4 days, thereby obtaining an expressed colony. Regarding these cells, Ca-influx and cell-proliferation by LPA, level of [^3H] LPA binding and the like were inspected to select a cell line which highly expresses human EDG-2 (human EDG-2/HepG2).
Human EDG-2/HepG2 cells suspended in 10% bovine serum-containing DMEM (Dulbecco's modified eagle medium) were plated on a 96-well plate and, on the next day, the medium was exchanged with serum-free DMEM. 24 hours later, the medium was exchanged with DMEM containing LPA or DMEM containing no LPA, cells were cultured for further 16 hours, and [^3H] thymidine was then added. After culturing for 8 hours subsequent to the addition of [^3H] thymidine, cells were washed with PBS (phosphate-buffered saline), and the amount of [^3H] thymidine incorporated into the cells were assayed by Betaplate filter counter system (Amersham Pharmacia Biotech). The difference between the amount of [^3H] thymidine incorporated in the LPA-added well and the amount of [^3H] thymidine incorporated in the well containing no LPA represents the amount of [^3H] thymidine incorporation accelerated by LPA. […] The test compounds were added immediately before the LPA addition.

One may read the IC50 as the concentration needed to halve the response being measured. Read a high IC50 as lower potency.

T1 sequence (Q92633 whole entry): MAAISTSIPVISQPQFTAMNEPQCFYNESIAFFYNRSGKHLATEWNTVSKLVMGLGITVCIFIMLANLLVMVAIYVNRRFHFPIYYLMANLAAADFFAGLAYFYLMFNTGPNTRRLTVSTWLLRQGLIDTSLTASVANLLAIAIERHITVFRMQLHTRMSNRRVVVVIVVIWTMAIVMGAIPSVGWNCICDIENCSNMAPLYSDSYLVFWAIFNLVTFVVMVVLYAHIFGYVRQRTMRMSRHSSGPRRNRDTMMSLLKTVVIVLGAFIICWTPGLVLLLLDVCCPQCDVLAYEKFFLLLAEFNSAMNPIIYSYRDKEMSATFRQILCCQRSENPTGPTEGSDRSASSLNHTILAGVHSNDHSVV

For the compound `Cc1noc(-c2ccc(CSCC(=O)NCc3ccco3)cc2)c1NC(=O)OC(C)c1ccccc1Cl` (centres unmarked) [Compound 139, 1-(2-Chlorophenyl)ethyl N-(5-{4-[({2-[(2-furylmethyl)amino]-2-oxoethyl}sulfanyl)-methyl]phenyl)-3-methyl-4-isoxazolyl)carbamate], the IC50 is 10 µM at human EDG-2 and 0.03 to 0.1 µM with Human EDG-2/HepG2 cells.

For `CCOC(=O)CSCc1cccc(-c2onc(C)c2NC(=O)OC(C)c2ccccc2Cl)c1` (centres unmarked) [Compound 140, Ethyl 2-({3-[4-({[1-(2-chlorophenyl)ethoxy]carbonyl}amino)-3-methyl-5-isoxazolyl]benzyl}-sulfanyl)acetate], the half-maximal inhibitory concentration (IC50) fell in the range of 3 to 10 µM on human EDG-2 and 0.3 to 1 µM in the assay on Human EDG-2/HepG2 cells.

For the compound `C=CCSCc1cccc(-c2onc(C)c2NC(=O)OC(C)c2ccccc2Cl)c1` (centres unmarked) [Compound 141, 1-(2-Chlorophenyl)ethyl N-(5-{3-[(allylsulfanyl)methyl]phenyl}-3-methyl-4-isoxazolyl)-carbamate], the IC50 was 3 to 10 µM at human EDG-2 and 0.3 to 1 µM with Human EDG-2/HepG2 cells.

Turning to `Cc1noc(-c2cccc(CSCCc3ccccc3)c2)c1NC(=O)OC(C)c1ccccc1Cl` (centres unmarked) [Compound 142, 1-(2-Chlorophenyl)ethyl N-(3-methyl-5-{3-[(phenethylsulfanyl)methyl]phenyl}-4-isoxazolyl)-carbamate], the half-maximal inhibitory concentration (IC50) on human EDG-2 is 3 to 10 µM; with Human EDG-2/HepG2 cells, 0.3 µM.

Consider `Cc1noc(-c2cccc(CSc3nc[nH]n3)c2)c1NC(=O)OC(C)c1ccccc1Cl` (centres unmarked) [Compound 143, 1-(2-Chlorophenyl)ethyl N-(3-methyl-5-{3-[(1H-1,2,4-triazol-3-ylsulfanyl)methyl]phenyl}-4-isoxazolyl)carbamate], for which the values for the IC50 at human EDG-2 and in the assay with Human EDG-2/HepG2 cells were 3 to 10 µM and 0.1 to 0.3 µM, respectively.

For the compound `CC(=O)NCCSCc1ccc(-c2onc(C)c2NC(=O)OC(C)c2ccccc2Cl)cc1` (centres unmarked) [Compound 145, 1-(2-Chlorophenyl)ethyl N-{5-[4-({[2-(acetylamino)ethyl]sulfanyl}methyl)phenyl]-3-methyl-4-isoxazolyl}carbamate], the 50% inhibitory concentration (IC50) at human EDG-2 is 3 to 10 µM; with Human EDG-2/HepG2 cells, 0.3 to 1 µM.

With `CCc1noc(-c2ccc(CSCCC(=O)OC)cc2)c1NC(=O)OC(C)c1ccccc1Cl` (centres unmarked) [Compound 146], the IC50 at human EDG-2 lay within 3 to 10 µM; in the assay with Human EDG-2/HepG2 cells, 0.03 to 0.3 µM.

On to `CCc1noc(-c2ccc(CSCCC(=O)O)cc2)c1NC(=O)OC(C)c1ccccc1Cl` (centres unmarked) [Compound 147, 3-({4-[4-({[1-(2-Chlorophenyl)ethoxy]carbonyl}amino)-3-ethyl-5-isoxazolyl]benzyl}-sulfanyl)propanoic acid], for which the 50% inhibitory concentration (IC50) lay within 3 to 10 µM against human EDG-2 and 0.03 to 0.1 µM in the assay on Human EDG-2/HepG2 cells.

With `Cc1noc(-c2ccc(CSC(C)C(=O)O)cc2)c1NC(=O)OC(C)c1ccccc1Cl` (centres unmarked) [Compound 148, 2-({4-[4-({[1-(2-Chlorophenyl)ethoxy]carbonyl}amino)-3-methyl-5-isoxazolyl]benzyl}-sulfanyl)propanoic acid], the values for the IC50 against human EDG-2 and with Human EDG-2/HepG2 cells were 10 to 30 µM and 0.1 to 0.3 µM, respectively.

In the case of `Cc1noc(-c2ccc(CSCCNC(=O)c3ccc[nH]3)cc2)c1NC(=O)OC(C)c1ccccc1Cl` (centres unmarked) [Compound 149, 1-(2-Chlorophenyl)ethyl N-(3-methyl-5-{4-[({2-[(1H-2-pyrrolylcarbonyl)amino]ethyl}-sulfanyl)methyl]phenyl}-4-isoxazolyl)carbamate], the figures for the IC50 against human EDG-2 and in the assay with Human EDG-2/HepG2 cells were 10 to 30 µM and 0.03 µM, respectively.

Turning to `Cc1noc(-c2ccc(CSCCS(=O)(=O)O)cc2)c1NC(=O)OC(C)c1ccccc1Cl` (centres unmarked) [Compound 151, 2-({4-[4-({[1-(2-Chlorophenyl)ethoxy]carbonyl}amino)-3-methyl-5-isoxazolyl]benzyl}-sulfanyl)-1-ethanesulfonic acid], the IC50 was 3 to 10 µM at human EDG-2 and 0.1 µM with Human EDG-2/HepG2 cells.

Turning to `Cc1noc(-c2ccc(CSCCCS(=O)(=O)O)cc2)c1NC(=O)OC(C)c1ccccc1Cl` (centres unmarked) [Compound 152, 3-({4-[4-({[1-(2-Chlorophenyl)ethoxy]carbonyl}amino)-3-methyl-5-isoxazolyl]benzyl}-sulfanyl)-1-propanesulfonic acid], the IC50 is 3 to 10 µM against human EDG-2 and 0.3 µM in the assay with Human EDG-2/HepG2 cells.

In the case of `CCc1noc(-c2ccc(CSCC(=O)OC)cc2)c1NC(=O)OC(C)c1ccccc1Cl` (centres unmarked) [Compound 153, Methyl 2-({4-[4-({[1-(2-chlorophenyl)ethoxy]carbonyl}amino)-3-ethyl-5-isoxazolyl]benzyl}-sulfanyl)acetate], the results for the IC50 on human EDG-2 and with Human EDG-2/HepG2 cells were 3 to 10 µM and 0.3 µM, respectively.

As to `CCc1noc(-c2ccc(CSCC(=O)O)cc2)c1NC(=O)OC(C)c1ccccc1Cl` (centres unmarked) [Compound 154, 2-({4-[4-({[1-(2-Chlorophenyl)ethoxy]carbonyl}amino)-3-ethyl-5-isoxazolyl]benzyl}-sulfanyl)acetic acid], the IC50 was in the range of 3 to 10 µM on human EDG-2 and 0.1 to 0.3 µM with Human EDG-2/HepG2 cells.

Turning to `COC(=O)CCSCc1ccc(-c2onc(C)c2NC(=O)OC(C)c2ccccc2F)cc1` (centres unmarked) [Compound 156, Methyl 3-({4-[4-({[1-(2-fluorophenyl)ethoxy]carbonyl}amino)-3-methyl-5-isoxazolyl]-benzyl}-sulfanyl)propanoate], the IC50 against human EDG-2 was 10 µM; with Human EDG-2/HepG2 cells, 0.3 to 1 µM.

In the case of `Cc1noc(-c2ccc(CSCCC(=O)O)cc2)c1NC(=O)OC(C)c1ccccc1F` (centres unmarked) [Compound 157, 3-({4-[4-({[1-(2-Fluorophenyl)ethoxy]carbonyl}amino)-3-methyl-5-isoxazolyl]benzyl}-sulfanyl)propanoic acid], the 50% inhibitory concentration (IC50) on human EDG-2 was 3 µM; with Human EDG-2/HepG2 cells, 0.3 to 1 µM.

Consider `Cc1noc(-c2cccc(CSCCS(=O)(=O)O)c2)c1NC(=O)OC(C)c1ccccc1Cl` (centres unmarked) [Compound 158, 2-({3-[4-({[1-(2-Chlorophenyl)ethoxy]carbonyl}amino)-3-methyl-5-isoxazolyl]benzyl}-sulfanyl)-1-ethanesulfonic acid], for which the figures for the IC50 on human EDG-2 and with Human EDG-2/HepG2 cells were 3 to 10 µM and 1 µM, respectively.

As to `Cc1noc(-c2cccc(CSCCC(=O)O)c2)c1NC(=O)OC(C)c1ccccc1Cl` (centres unmarked) [Compound 159, 3-({3-[4-({[1-(2-Chlorophenyl)ethoxy]carbonyl}amino)-3-methyl-5-isoxazolyl]benzyl}-sulfanyl)propanoic acid], the values for the concentration for half-maximal inhibition (IC50) at human EDG-2 and in the assay on Human EDG-2/HepG2 cells were 3 µM and 0.3 µM, respectively.

For `Cc1noc(-c2ccc(CCl)cc2)c1NC(=O)OC(c1ccccc1)C(F)(F)F` (centres unmarked) [Compound 161, 2,2,2-Trifluoro-1-phenylethyl N-{5-[4-(chloromethyl)phenyl]-3-methyl-4-isoxazolyl}-carbamate], the figures for the 50% inhibitory concentration (IC50) on human EDG-2 and in the assay on Human EDG-2/HepG2 cells were 3 to 10 µM and 1 to 3 µM, respectively.

Regarding `COC(=O)CCSCc1ccc(-c2onc(C)c2NC(=O)OC(c2ccccc2)C(F)(F)F)cc1` (centres unmarked) [Compound 162, Methyl 3-{[4-(3-methyl-4-{[(2,2,2-trifluoro-1-phenylethoxy)carbonyl]amino}-5-isoxazolyl)-benzyl]-sulfanyl}propanoate], the results for the half-inhibitory concentration (IC50) at human EDG-2 and in the assay on Human EDG-2/HepG2 cells were 3 to 10 µM and 0.03 to 0.1 µM, respectively.

Consider `Cc1noc(-c2ccc(CSCCC(=O)O)cc2)c1NC(=O)OC(c1ccccc1)C(F)(F)F` (centres unmarked) [Compound 163, 3-{[4-(3-Methyl-4-{[(2,2,2-trifluoro-1-phenylethoxy)carbonyl]amino}-5-isoxazolyl)benzyl]-sulfanyl}propanoic acid], for which the IC50 against human EDG-2 lay within 3 to 10 µM; in the assay with Human EDG-2/HepG2 cells it was 0.03 to 0.1 µM.

In the case of `CCc1noc(-c2ccc(CCl)cc2)c1NC(=O)OC(c1ccccc1)C(F)(F)F` (centres unmarked) [Compound 164, 2,2,2-Trifluoro-1-phenylethyl N-{5-[4-(chloromethyl)phenyl]-3-ethyl-4-isoxazolyl}carbamate], the values for the 50% inhibitory concentration (IC50) against human EDG-2 and with Human EDG-2/HepG2 cells were 3 to 10 µM and 0.3 to 1 µM, respectively.

The record behind these values is patent US6964975B2, “Isoxazole and thiazole compounds and use thereof as medicine” (Kirin Beer Kabushiki Kaisha, priority 2000, dated 2005).
